Laboratory results as given in US8912338B2, “Pesticidal compositions” (Dow AgroSciences LLC, priority 2010, dated 2014).

What was measured:
[1] = tested on: Cotton Aphid (Aphis gossypii); experiment: Insecticidal test for cotton aphid in a foliar spray assay; assay type: in vivo; conditions: 72 h, 200 ppm foliar spray on squash or cotton seedlings, live aphids counted after three days, Abbott's corrected % control, read-out: APHIGO % Ctrl @ 200 ppm
Protocol: Squash or cotton seedlings with fully expanded cotyledon leaves were trimmed to one cotyledon per plant and infested with wingless adult and nymph stage cotton aphid (APHIGO) one day prior to chemical application. Each plant was examined before chemical application to ensure uniform infestation (ca. 30-70 aphids per plant). Compounds (2 mg) were dissolved in 2 mL of acetone/methanol (1:1) solvent, forming stock solutions of 1000 ppm. The stock solutions were diluted 5× with 0.025% Tween 20 in H2O to obtain a solution at 200 ppm. A hand-held Devilbiss aspirator type sprayer was used to apply the spray solutions until runoff to both sides of the squash cotyledon leaves. Four plants (4 replications) were used for each concentration of each compound. Reference plants (solvent check) were sprayed with the diluent only. Treated plants were held in a holding room for three days at approximately 25° C. and 40% RH before the number of live cotton aphids on each plant was recorded. Insecticidal activity data presented in Table 3 were generated by using Abbott's correction formula: Corrected%Control=100*(X−Y)/X • where X=No. of live aphids on solvent check plants • Y=No. of live aphids on treated plants

[2] = tested on: Green Peach Aphid (Myzus persicae); experiment: Insecticidal test for green peach aphid in foliar spray assay; assay type: in vivo; conditions: 72 h, 200 ppm foliar spray on cabbage seedlings, live aphids counted after three days, Abbott's corrected % control, read-out: MYZUPE % Ctrl @ 200 ppm
Protocol: Certain molecules disclosed in this document were tested against MYZUPE using procedures described in the following example. In the reporting of the results, the “MYZUPE, APHIGO and BEMITA Rating Table” was used (See Table Section).
Cabbage seedlings grown in 3-inch pots, with 2-3 small (3-5 cm) true leaves, were used as test substrate. The seedlings were infested with 20-50 green peach aphids (wingless adult and nymph stage) one day prior to chemical application. Four pots with individual seedlings were used for each treatment. Compounds (2 mg) were dissolved in 2 mL of acetone/methanol (1:1) solvent, forming stock solutions of 1000 ppm. The stock solutions were diluted 5× with 0.025% Tween 20 in H2O to obtain the test solution at 200 ppm. A hand-held Devilbiss sprayer was used for spraying a solution to both sides of cabbage leaves until runoff. Reference plants (solvent check) were sprayed with the diluent only. Treated plants were held in a holding room for three days at approximately 25° C. and 40% relative humidity (RH) prior to grading. Evaluation was conducted by counting the number of live aphids per plant under a microscope. Insecticidal activity data presented in Table 3 were generated by using Abbott's correction formula: Corrected%Control=100*(X−Y)/X • where X=No. of live aphids on solvent check plants • Y=No. of live aphids on treated plants

[3] = tested on: Sweetpotato Whitefly (Bemisia tabaci); experiment: Insecticidal test for sweetpotato whitefly in foliar spray assay; assay type: in vivo; conditions: 200 ppm foliar spray on cotton plants infested with eggs, live nymphs counted after 8-9 days, Abbott's corrected % control, read-out: BEMITA % Ctrl @ 200 ppm
Protocol: Cotton plants were used as test substrate and were grown in 3-inch pots and pruned until only 1 small (3-5 cm) true leaf remained. The plants were then placed in a room with whitefly ([…]) adults and allowed to be infested with eggs. After a 2-3 day egg-laying period, plants were taken from the adult whitefly room and the adults were removed from the leaves using compressed air delivered through a hand-held Devilbiss sprayer (23 psi). Plants infested with eggs (100-300 eggs per plant) were placed in a controlled-environment room for 5-6 days at 82° F. and 50% RH until approximately 50% egg hatch. Four cotton plants (4 replicates) were used for each treatment. Compounds (2 mg) were dissolved in 1 mL of acetone solvent, forming stock solutions of 2000 ppm. The stock solutions were diluted 10× with 0.025% Tween 20 in H2O to obtain the test solution of 200 ppm. A hand-held Devilbiss sprayer was used for spraying a solution to both sides of cotton leaf until runoff. Reference plants (solvent check) were sprayed with the diluent only. Treated plants were held in a holding room for 8-9 days at approximately 82° F. and 50% RH prior to grading. Evaluation was conducted by counting the number of live nymphs per plant under a microscope. Insecticidal activity data presented in Table 3 were generated by using Abbott's correction formula: Corrected%Control=100*(X-Y)/X • where X=No. of live nymphs on solvent check plants • Y=No. of live nymphs on treated plants […]

Row | SMILES | melting point [°C] | inhibition at 200 ppm [1] [%] | inhibition at 200 ppm [2] [%] | inhibition at 200 ppm [3] [%]
1 | CN(C(=O)CCNC(=O)OC(C)(C)C)c1nnc(-c2cccnc2)s1 [Compound 38] | 41 to 48 | 80 to 100 | 80 to 100 | 0 to 80
2 | CN(C(=O)C(C)(C)C/S(C)=N/C#N)c1nnc(-c2cccnc2)s1 (stereo not shown) [Compound 39, N-2,2-trimethyl-3-(methyl-N-cyano-sulfiliminyl)-N-(5-(pyridin-3-yl)-1,3,4-thiadiazol-2-yl)propanamide] | 42 to 52 | 80 to 100 | 80 to 100 | 0 to 80
3 | CCS(=O)(=O)C(C)CC(=O)N(C)c1nnc(-c2cccnc2)s1 (stereo not shown) [Compound 43] | 175 to 177 | 80 to 100 | 0 to 80 | < 0
4 | CSCC1(C(=O)N(C)c2nnc(-c3cccnc3)s2)CC1 [Compound 44] | 144 to 147 | 80 to 100 | 80 to 100 | < 0

Now from value to compound, other results behind:

Row | melting point [°C] | SMILES | inhibition at 200 ppm [1] [%] | inhibition at 200 ppm [2] [%] | inhibition at 200 ppm [3] [%]
5 | 166 to 168 | CN(C(=O)C1(C[S+](C)[O-])CC1)c1nnc(-c2cccnc2)s1 (stereo not shown) [Compound 45] | 80 to 100 | 80 to 100 | 0 to 80
6 | 114 to 121 | CO/N=C(\C)CCC(=O)N(C)c1nnc(-c2cccnc2)s1 [Compound 48, 4-[(E)-methoxyimino]-pentanoic acid methyl-(5-pyridin-3-yl-[1,3,4]thiadiazol-2-yl)-amide] | 80 to 100 | 80 to 100 | 0 to 80
7 | 146 to 147 | CC(=O)CCC(=O)N(C)c1nnc(-c2cccnc2)s1 [Compound 49, N-methyl-4-oxo-N-[5-(3-pyridyl)-1,3,4-thiadiazol-2-yl]pentanamide] | 80 to 100 | 0 to 80 | 0 to 80
8 | 126 to 128 | CSCCOC(=O)N(C)c1nnc(-c2cccnc2)s1 [Compound 50, 2-(Methylthio)ethyl methyl(5-(pyridin-3-yl)-1,3,4-thiadiazol-2-yl)carbamate] | 80 to 100 | 80 to 100 | 0 to 80
9 | 170 to 172 | CN(C(=O)OCC[S+](C)[O-])c1nnc(-c2cccnc2)s1 (stereo not shown) [Compound 51] | 80 to 100 | 80 to 100 | 0 to 80
10 | 152 to 154 | COC(=O)CCC(=O)N(C)c1nnc(-c2cccnc2)s1 [Compound 56, methyl 4-(methyl-(5-(pyridin-3-yl)-1,3,4-thiadiazol-2-yl)amino)-4-oxobutanoate] | 80 to 100 | 0 to 80 | < 0
